Reference: patent US12589143B2, “Human anti-PD-L1 peptide vaccines and methods of their use” (priority 2019, dated 2026)
“And” between values parts separate entries of the source, which are not always exact repeats. Equal entries are not always repeated. Where no end group is shown, it is not given here.

Test system: MVF-PD-L1 peptide immunogen
Test: Immunogenicity in Balb/c mice, experiment 1 (CT26 WT): ELISA of sera vs each MVF-PD-L1 peptide immunogen
Assay type: in vivo
Conditions: for Immunogenicity (titers) 1′ Conc. 1:: Balb/c mice
Experimental: Immunogenicity of MVF-PD-L1 B-cell epitopes. New Zealand White rabbits were immunized with 1 mg of each MVF-peptide immunogens dissolved in dd H2O emulsified (1:1) in Montanide ISA 720 vehicle (Seppic) with 333 μg of N-acetylglucosamine-3yl-acetyl-1-alanyl-d-isoglutamine (nor-MDP). Rabbits were boosted with the same doses at 3-week's intervals. Blood was collected via the central auricular artery in rabbits. Blood was collected weekly (1Y+3, 2Y+1, 2Y+2,2Y+3, 3Y+1, 3Y+2 and sera tested for antibody titers by ELISA using the immunogens MVF-PD-L1 peptides. Sera (terminal) from rabbit (3Y+3) immunized with MVF-PD-1 peptide immunogens were tested individually versus the immunogen by ELISA. 200 ng/well peptide were used in duplicates to coat the ELISA plates. Titers are defined as the highest dilution of sera with an absorbance value of 0.2 after subtracting the blank.
FIGS. 5A, 5B, 5C, and 5D show the experimental scheme to test the immunization with PD-L1 in Balb/c mice. […] Balb/c mice 6-8 weeks old, were immunized with MVF-peptide immunogens emulsified in ISA 720 with nor-MDP three times and three weeks apart. Mice were immunized with MVF-PD-L1 vaccine constructs [PD-L1(36-53), PD-L1(50-67), PD-L1(95-112), PD-L1(130-147)] prior to tumor challenge. Blood was collected weekly and sera tested for antibody titers by ELISA. Two weeks after the third immunization (3Y), the mice were engrafted with CT26 WT tumor cells 10^5 per mouse Control mice were treated twice weekly with PBS as negative control and twice weekly with anti-mPD-L1 mAb (10F.9G2) as positive control starting 2 days after tumor challenge. Tumor growths were observed twice weekly and measured by calipers.
Immunogenicity of MVF-PD-L1 peptides in BALB/c mice immunized with various peptide constructs. Sera collected weekly were tittered against each individual MVF-PD-L1 peptide immunogen. The Pink bar refers to titers versus PD-L1 130 and the red bar refers to titers versus PD-1 (92-110).
In order to verify the efficacy of the PD-L1 epitope vaccines in vivo in the CT26 carcinoma cell line, Balb/c mice (10 mice/group) were immunized with 100 μg each of MVF-PD-L1 (36-53), MVF-PD-L1 (50-67), MVF-PD-L1 (95-112) and MVF-PD-L1 (130-147) emulsified with nor-MDP and Montanide 720 (1:1 ratio) SCHEME 1A (FIG. 5A). As detailed in SCHEME 1A-D (FIGS. 5A, 5B, 5C, and 5D), mice were immunized 3 times at 3 weeks intervals. […] All PD-L1 epitopes elicited high titers of PD-L1 anti-peptide antibodies by ELISA. […] We also investigated the combination of PD-1(92-110) with PD-L1-130-147.
For each peptide, vaccine antibodies were raised in New Zealand white rabbits, purchased from Charles River Laboratories (Wilmington, MA, USA). Rabbits were immunized with 1 mg of MVF chimeric peptide emulsified in Montanide ISA 720 (Seppic, Paris, France) and boosted 3 times at three week intervals. For mouse experiments, mice, 6-8 weeks old, were immunized with 0.1 mg of peptide emulsified in ISA720 (1:1 ratio). Mice were boosted with the respective doses at 3-week intervals. Blood was then collected and sera were tested for antibody titers. Sera were collected weekly and peptide vaccine antibodies were purified by affinity chromatography using a protein A/G column and the concentration was measured using Spectrophometer. All experiments were performed in accordance with the U.S. Public Health Service Policy on Humane Care and Use of Laboratory animals and approved by the Ohio State University Institutional Animals Care and Use Committee, detailed in the accepted protocol.
6-8 weeks old BALB/c mice (Charles River, Wilmington, MA) were used as standard animal models. Mouse CT26 colon carcinoma cell line was purchased from American Type Culture Collection Cells and were regularly cultured in RPMI1640 medium containing 10% FBS. CT26/HER2 cells were kindly provided by M. Penichet. Vaccines were dissolved in sterile water and emulsified in Montanide ISA 720 (1:1). […]

Sequence: KLLSLIKGVIVHRLEGVEGPSLFVHGEEDLKVQHSSYRQR (KLLSLIKGVIVHRLEGVEGPSLFVHGEEDLKVQHSSYRQR-NH2) [PD-L1(50)]
- Immunogenicity (titers) 1′ Conc. 1: (bleed 1Y + 3): 6400
- Immunogenicity (titers) 1′ Conc. 1: (bleed 2Y + 1): 12800
- Immunogenicity (titers) 1′ Conc. 1: (bleed 2Y + 2): 12800
- Immunogenicity (titers) 1′ Conc. 1: (bleed 2Y + 3): 12800
- Immunogenicity (titers) 1′ Conc. 1: (bleed 3Y + 1): 128000
- Immunogenicity (titers) 1′ Conc. 1: (bleed 3Y + 2): 128000
- Immunogenicity (titers) 1′ Conc. 1: (bleed 3Y + 3): 128000
- ELISA absorbance of sera (bleed 1Y + 3 (1to100), dilution 100, bleed 1Y + 3): 1.459 and 1.424
- ELISA absorbance of sera (bleed 1Y + 3 (1to100), dilution 200, bleed 1Y + 3): 1.338 and 1.282
- ELISA absorbance of sera (bleed 1Y + 3 (1to100), dilution 400, bleed 1Y + 3): 1.131 and 1.099
- ELISA absorbance of sera (bleed 1Y + 3 (1to100), dilution 800, bleed 1Y + 3): 0.878 and 0.852
- ELISA absorbance of sera (bleed 1Y + 3 (1to100), dilution 1,600, bleed 1Y + 3): 0.639 and 0.588
- ELISA absorbance of sera (bleed 1Y + 3 (1to100), dilution 3,200, bleed 1Y + 3): 0.398 and 0.365
- ELISA absorbance of sera (bleed 1Y + 3 (1to100), dilution 6,400, bleed 1Y + 3): 0.239 and 0.213
- ELISA absorbance of sera (bleed 1Y + 3 (1to100), dilution 12,800, bleed 1Y + 3): 0.143 and 0.129
- ELISA absorbance of sera (bleed 2Y + 1 (1to100), dilution 100, bleed 2Y + 1): 1.243 and 1.292
- ELISA absorbance of sera (bleed 2Y + 1 (1to100), dilution 200, bleed 2Y + 1): 1.279 and 1.274
- ELISA absorbance of sera (bleed 2Y + 1 (1to100), dilution 400, bleed 2Y + 1): 1.241 and 1.170
- ELISA absorbance of sera (bleed 2Y + 1 (1to100), dilution 800, bleed 2Y + 1): 1.127 and 1.002
- ELISA absorbance of sera (bleed 2Y + 1 (1to100), dilution 1,600, bleed 2Y + 1): 0.923 and 0.887
- ELISA absorbance of sera (bleed 2Y + 1 (1to100), dilution 3,200, bleed 2Y + 1): 0.721 and 0.666
- ELISA absorbance of sera (bleed 2Y + 1 (1to100), dilution 6,400, bleed 2Y + 1): 0.480 and 0.471
- ELISA absorbance of sera (bleed 2Y + 1 (1to100), dilution 12,800, bleed 2Y + 1): 0.332 and 0.274
- ELISA absorbance of sera (bleed 2Y + 2 (1to100), dilution 100): 1.298 and 1.343
- ELISA absorbance of sera (bleed 2Y + 2 (1to100), dilution 200): 1.310 and 1.286
- ELISA absorbance of sera (bleed 2Y + 2 (1to100), dilution 400): 1.241 and 1.190
- ELISA absorbance of sera (bleed 2Y + 2 (1to100), dilution 800): 1.144 and 1.093
- ELISA absorbance of sera (bleed 2Y + 2 (1to100), dilution 1,600): 0.964 and 0.893
- ELISA absorbance of sera (bleed 2Y + 2 (1to100), dilution 3,200): 0.741 and 0.670
- ELISA absorbance of sera (bleed 2Y + 2 (1to100), dilution 6,400): 0.519 and 0.487
- ELISA absorbance of sera (bleed 2Y + 3 (1to1k), dilution 100): 1.054 and 1.076
- ELISA absorbance of sera (bleed 2Y + 3 (1to1k), dilution 200): 1.008 and 1.012
- ELISA absorbance of sera (bleed 2Y + 3 (1to1k), dilution 400): 0.952 and 0.915
- ELISA absorbance of sera (bleed 2Y + 3 (1to1k), dilution 800): 0.827 and 0.819
- ELISA absorbance of sera (bleed 2Y + 3 (1to1k), dilution 1,600): 0.708 and 0.703
- ELISA absorbance of sera (bleed 2Y + 3 (1to1k), dilution 3,200): 0.534 and 0.514
- ELISA absorbance of sera (bleed 2Y + 3 (1to1k), dilution 6,400): 0.351 and 0.332
- ELISA absorbance of sera (bleed 3Y + 1 (1to1k), dilution 100, bleed 3Y + 1): 1.191 and 1.215
- ELISA absorbance of sera (bleed 3Y + 1 (1to1k), dilution 200, bleed 3Y + 1): 1.138 and 1.143
- ELISA absorbance of sera (bleed 3Y + 1 (1to1k), dilution 400, bleed 3Y + 1): 1.076 and 1.034
- ELISA absorbance of sera (bleed 3Y + 1 (1to1k), dilution 800, bleed 3Y + 1): 0.935 and 0.925
- ELISA absorbance of sera (bleed 3Y + 1 (1to1k), dilution 1,600, bleed 3Y + 1): 0.800 and 0.794
- ELISA absorbance of sera (bleed 3Y + 1 (1to1k), dilution 3,200, bleed 3Y + 1): 0.603 and 0.581
- ELISA absorbance of sera (bleed 3Y + 1 (1to1k), dilution 6,400, bleed 3Y + 1): 0.397 and 0.375
- ELISA absorbance of sera (bleed 3Y + 2 (1to1k), dilution 100, bleed 3Y + 2): 1.608 and 1.586
- ELISA absorbance of sera (bleed 3Y + 2 (1to1k), dilution 200, bleed 3Y + 2): 1.503 and 1.479
- ELISA absorbance of sera (bleed 3Y + 2 (1to1k), dilution 400, bleed 3Y + 2): 1.384 and 1.401
- ELISA absorbance of sera (bleed 3Y + 2 (1to1k), dilution 800, bleed 3Y + 2): 1.185 and 1.213
- ELISA absorbance of sera (bleed 3Y + 2 (1to1k), dilution 1,600, bleed 3Y + 2): 0.961 and 0.959
- ELISA absorbance of sera (bleed 3Y + 2 (1to1k), dilution 3,200, bleed 3Y + 2): 0.684 and 0.694
- ELISA absorbance of sera (bleed 3Y + 2 (1to1k), dilution 6,400, bleed 3Y + 2): 0.462
- ELISA absorbance of sera (bleed 3Y + 3 (1to1k), dilution 100, bleed 3Y + 3): 1.740 and 1.779
- ELISA absorbance of sera (bleed 3Y + 3 (1to1k), dilution 200, bleed 3Y + 3): 1.596 and 1.638
- ELISA absorbance of sera (bleed 3Y + 3 (1to1k), dilution 400, bleed 3Y + 3): 1.445 and 1.469
- ELISA absorbance of sera (bleed 3Y + 3 (1to1k), dilution 800, bleed 3Y + 3): 1.181 and 1.217
- ELISA absorbance of sera (bleed 3Y + 3 (1to1k), dilution 1,600, bleed 3Y + 3): 0.867 and 0.967
- ELISA absorbance of sera (bleed 3Y + 3 (1to1k), dilution 3,200, bleed 3Y + 3): 0.621 and 0.629
- ELISA absorbance of sera (bleed 3Y + 3 (1to1k), dilution 6,400, bleed 3Y + 3): 0.359
